According to US10214522B2, “Anti-alphavbeta1 integrin inhibitors and methods of use” (The Regents of the University of California, priority 2015, dated 2019):

Molecular target: T1, αvβ1 integrin (UniProt G3HZ55+P06756)
T1 construct: expressed in transfected cells; host or cells: CHO cells (elsewhere described as α5-deficient CHO) transfected with human αv
Assay: Cell Adhesion Assay (integrin-specific adhesion, αvβ1)
Assay type: cell-based
Conditions: CHO cells transfected with human αv adhering to 0.3 μg/ml fibronectin; read-out: Cell Adhesion Assay IC50 range
Method: The effects of compounds on cell adhesion mediated by […], α8β1, αvβ1, αvβ3, αvβ5, αvβ6, and αvβ8 are measured using pairs of cell lines and ligands selected to isolate the effect of each individual integrin. For α5β1 we utilize the colon carcinoma cell line, SW480, plated on 0.3 μg/ml fibronectin, for α8β1, we utilize SW480 cells transfected with human α8 adhering to 1 μg/ml recombinant TGFβ1 LAP [5], for αvβ1 we use Chinese Hamster Ovary Cells (CHO cells) transfected with human αv adhering to 0.3 μg/ml fibronectin [6], for αvβ3 we use SW480 cells transfected with human β3, for αvβ5 we use wild type SW480 cells adhering to 0.1 μg/ml vitronectin. For αvβ6 we use SW480 cells transfected with human β6 adhering to 0.01 μg/ml recombinant human TGFβ1 LAP. For αvβ8 we use glioma cell line (SNB19) expressing β8 adhering to 1 μg/ml recombinant human TGFβ1 LAP.
(§1) The effects of the compound on cell adhesion mediated by αvβ1 integrin were measured using Chinese Hamster Ovary Cells (CHO cells) transfected with human αv adhering to 0.3 μg/ml fibronectin. In every case, we confirmed that adhesion could be inhibited by blocking antibodies to αv and β1. Cells were resuspended in DMEM for 30 min at 4° C. with 10-fold dilutions of the compound with a starting concentration of 10 μM. Each sample was then added to triplicate wells of a 96-well plate which had been coated overnight at 4° C. with the relevant ligand, washed, blocked by 1 hr incubation with 1% BSA, and washed again. Cells were allowed to attach for 30-60 min at 37° C. After incubation, non-adherent cells were removed by discarding the media and spinning the plate top-side down at 500 rpm for 5 minutes. Cells were then fixed and stained with 40 ul of 0.5% Crystal violet, 1% Formaldehyde, 20% Methanol for 30 minutes and lysed with 2% Trition-X. Absorbance was measured at 595 nm in a Microplate reader. For all assays, concentration-response curves were constructed by non-linear regression analysis and IC50 values using Graphpad PRISM (ver 6.0).
as §1, with “Integrin specific” for “effects of the compound on cell”, “assays” for “mediated by αvβ1 integrin”, “In every case, we confirmed that adhesion could be inhibited by blocking antibodies to αv and β1.” left out

T1 sequence (P06756 31-889 limits assumed): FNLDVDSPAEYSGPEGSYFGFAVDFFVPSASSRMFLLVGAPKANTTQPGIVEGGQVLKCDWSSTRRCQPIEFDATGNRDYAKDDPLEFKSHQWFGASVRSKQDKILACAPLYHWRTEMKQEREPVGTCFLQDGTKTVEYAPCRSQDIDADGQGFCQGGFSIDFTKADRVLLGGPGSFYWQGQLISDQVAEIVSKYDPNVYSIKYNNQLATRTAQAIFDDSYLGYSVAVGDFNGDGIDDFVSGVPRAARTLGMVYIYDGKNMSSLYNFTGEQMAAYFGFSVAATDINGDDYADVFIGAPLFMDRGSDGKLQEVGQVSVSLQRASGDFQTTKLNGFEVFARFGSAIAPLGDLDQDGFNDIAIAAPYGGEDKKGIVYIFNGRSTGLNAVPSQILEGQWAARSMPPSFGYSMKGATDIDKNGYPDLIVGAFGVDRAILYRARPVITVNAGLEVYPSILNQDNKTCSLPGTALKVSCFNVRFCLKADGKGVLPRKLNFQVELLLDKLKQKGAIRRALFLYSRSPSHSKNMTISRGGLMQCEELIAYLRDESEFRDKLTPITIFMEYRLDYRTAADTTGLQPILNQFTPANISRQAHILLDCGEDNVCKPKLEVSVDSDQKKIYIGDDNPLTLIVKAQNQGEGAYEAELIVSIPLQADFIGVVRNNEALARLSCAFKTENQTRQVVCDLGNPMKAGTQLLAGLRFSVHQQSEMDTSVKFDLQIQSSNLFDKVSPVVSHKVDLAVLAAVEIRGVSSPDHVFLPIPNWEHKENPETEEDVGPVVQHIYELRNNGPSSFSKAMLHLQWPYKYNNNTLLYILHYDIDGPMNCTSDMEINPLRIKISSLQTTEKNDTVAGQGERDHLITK
T1 sequence (P06756 891-1048 limits assumed): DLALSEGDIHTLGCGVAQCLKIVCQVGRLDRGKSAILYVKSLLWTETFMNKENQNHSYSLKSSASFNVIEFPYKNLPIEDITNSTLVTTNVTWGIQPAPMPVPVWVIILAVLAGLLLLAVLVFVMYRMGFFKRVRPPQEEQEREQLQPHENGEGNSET
T1 sequence (G3HZ55 21-798): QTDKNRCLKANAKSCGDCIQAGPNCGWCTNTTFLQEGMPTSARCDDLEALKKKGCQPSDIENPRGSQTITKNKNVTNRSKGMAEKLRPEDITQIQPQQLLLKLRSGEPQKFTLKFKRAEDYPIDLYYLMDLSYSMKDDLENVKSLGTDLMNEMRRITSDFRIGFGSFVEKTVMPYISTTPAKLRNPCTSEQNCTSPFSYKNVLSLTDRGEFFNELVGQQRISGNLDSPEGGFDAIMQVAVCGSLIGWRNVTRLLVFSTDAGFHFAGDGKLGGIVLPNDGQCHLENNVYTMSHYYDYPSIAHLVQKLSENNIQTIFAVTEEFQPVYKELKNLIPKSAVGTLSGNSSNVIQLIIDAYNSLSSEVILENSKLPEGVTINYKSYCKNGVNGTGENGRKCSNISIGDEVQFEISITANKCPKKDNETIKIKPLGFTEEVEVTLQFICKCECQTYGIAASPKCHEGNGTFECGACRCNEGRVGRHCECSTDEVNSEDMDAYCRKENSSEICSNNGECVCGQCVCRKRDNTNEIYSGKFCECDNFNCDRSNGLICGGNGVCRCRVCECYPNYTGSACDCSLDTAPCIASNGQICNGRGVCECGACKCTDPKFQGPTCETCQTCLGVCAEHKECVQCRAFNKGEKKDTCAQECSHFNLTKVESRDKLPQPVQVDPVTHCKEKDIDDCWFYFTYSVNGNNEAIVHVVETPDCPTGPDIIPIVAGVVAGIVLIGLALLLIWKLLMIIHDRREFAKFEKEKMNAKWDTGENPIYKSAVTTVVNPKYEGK

| IC50 [nM] | Structure (SMILES) |
| --- | --- |
| < 100 | Cc1cccc(C)c1C(=O)N[C@@H](Cc1ccc(NC(=O)CCCNc2ccccn2)cc1)C(=O)O [HIJ-890, (S)-2-(2,6-dimethylbenzamido)-3-(4-(4-(pyridin-2-ylamino)butanamido)phenyl)propanoic acid] |
| 100 to 10000 | N=C(N)NCCCc1coc(-c2ccc(C[C@H](NC(=O)c3c(Cl)cccc3Cl)C(=O)O)cc2)n1 [JM-185] |
| 100 to 10000 | CSc1ccccc1C(=O)N[C@@H](Cc1ccc(NC(=O)CCCNc2ccccn2)cc1)C(=O)O [HIJ-891, (S)-2-(2-(methylthio)benzamido)-3-(4-(4-(pyridin-2-ylamino)butanamido)phenyl)propanoic acid] |
| < 100 | O=C(CCCNc1ccccn1)Nc1ccc(C[C@H](NC(=O)c2c(Cl)cccc2Cl)C(=O)O)cc1 [YT-103, (S)-2-(2,6-dichlorobenzamido)-3-(4-(4-(pyridin-2-ylamino)butanamido)phenyl)propanoic acid] |
| 100 to 10000 | O=C(CCCCNC1=NCCN1)Nc1ccc(C[C@H](NC(=O)c2c(Cl)cccc2Cl)C(=O)O)cc1 [JM-61] |
| < 100 | O=C(CCc1ccc2c(n1)NCCC2)Nc1ccc(C[C@H](NC(=O)c2c(Cl)cccc2Cl)C(=O)O)cc1 [YT-119] |
| 100 to 10000 | N=C(N)Nc1ccc2c(c1)C(=O)N(c1ccc(C[C@H](NC(=O)c3c(Cl)cccc3Cl)C(=O)O)cc1)CC2 [JM-175] |
| < 100 | Cc1ccnc(NCCCC(=O)Nc2ccc(C[C@H](NC(=O)c3c(Cl)cccc3Cl)C(=O)O)cc2)c1 [HU-899] |
| 100 to 10000 | N=C(N)NCCCc1csc(-c2ccc(C[C@H](NC(=O)c3c(Cl)cccc3Cl)C(=O)O)cc2)n1 [JM-192] |
| 100 to 10000 | O=C(CCCCc1ccc2c(n1)NCCC2)Nc1ccc(C[C@H](NC(=O)c2c(Cl)cccc2Cl)C(=O)O)cc1 [YT-115] |
| < 100 | N=C(N)NCCCn1cc(-c2ccc(C[C@H](NC(=O)c3c(Cl)cccc3Cl)C(=O)O)cc2)nn1 [JM-141] |
| 100 to 10000 | N=C(N)NCCc1cn(-c2ccc(C[C@H](NC(=O)c3c(Cl)cccc3Cl)C(=O)O)cc2)nn1 [JM-39, (S)-2-(2,6-dichlorobenzamido)-3-(4-(4-(2-guanidinoethyl)-1H-1,2,3-triazol-1-yl)phenyl)propanoic acid] |
| 100 to 10000 | O=C(N[C@@H](Cc1ccc(-n2cc(CNc3ccccn3)nn2)cc1)C(=O)O)c1c(Cl)cccc1Cl [JM-230] |
| 100 to 10000 | N=C(N)NCCCC(=O)Nc1ccc(C[C@H](NC(=O)c2c(Cl)cccc2Cl)C(=O)O)cc1 [YT-107] |
| 100 to 10000 | O=C(CCCNc1ccccn1)Nc1ccc(C[C@H](NC(=O)c2cccc(-c3ccccc3)c2)C(=O)O)cc1 [HIJ-892, (S)-2-([1,1′-biphenyl]-3-carboxamido)-3-(4-(4-(pyridin-2-ylamino)butanamido)phenyl)propanoic acid] |
| 100 to 10000 | O=C(CCCc1ccc2c(n1)NCCC2)Nc1ccc(C[C@H](NC(=O)c2c(Cl)cccc2Cl)C(=O)O)cc1 [YT-101] |
| 100 to 10000 | COc1cccc(OC)c1C(=O)N[C@@H](Cc1ccc(NC(=O)CCCNc2ccccn2)cc1)C(=O)O [HIJ-886, (S)-2-(2,6-dimethoxybenzamido)-3-(4-(4-(pyridin-2-ylamino)butanamido)phenyl)propanoic acid] |
| 100 to 10000 | Cc1cccc(Cl)c1C(=O)N[C@@H](Cc1ccc(NC(=O)CCCNc2ccccn2)cc1)C(=O)O [HIJ-888, (S)-2-(2-chloro-6-methylbenzamido)-3-(4-(4-(pyridin-2-ylamino)butanamido)phenyl)propanoic acid] |
| < 100 | O=C(CCCNc1ccccn1)Nc1ccc(C[C@H](NC(=O)c2c(F)cccc2Br)C(=O)O)cc1 [HIJ-889, (S)-2-(2-bromo-6-fluorobenzamido)-3-(4-(4-(pyridin-2-ylamino)butanamido)phenyl)propanoic acid] |
| 100 to 10000 | O=C(CCCCNc1ccccn1)Nc1ccc(C[C@H](NC(=O)c2c(Cl)cccc2Cl)C(=O)O)cc1 [YT-43] |
